For series [1] the following is noted: capecitabine at labeled dose; cited from earlier work.
Series [2] addresses T1, dihydropyrimidine dehydrogenase (DPD) (Sus scrofa, UniProt Q28943).
T1 construct: the supernatant (cytosolic fraction) was collected for use as the enzyme source; from tissue; host or cells: pig skin biopsies after topical dosing in vivo
T1 sequence (Q28943 4-1025): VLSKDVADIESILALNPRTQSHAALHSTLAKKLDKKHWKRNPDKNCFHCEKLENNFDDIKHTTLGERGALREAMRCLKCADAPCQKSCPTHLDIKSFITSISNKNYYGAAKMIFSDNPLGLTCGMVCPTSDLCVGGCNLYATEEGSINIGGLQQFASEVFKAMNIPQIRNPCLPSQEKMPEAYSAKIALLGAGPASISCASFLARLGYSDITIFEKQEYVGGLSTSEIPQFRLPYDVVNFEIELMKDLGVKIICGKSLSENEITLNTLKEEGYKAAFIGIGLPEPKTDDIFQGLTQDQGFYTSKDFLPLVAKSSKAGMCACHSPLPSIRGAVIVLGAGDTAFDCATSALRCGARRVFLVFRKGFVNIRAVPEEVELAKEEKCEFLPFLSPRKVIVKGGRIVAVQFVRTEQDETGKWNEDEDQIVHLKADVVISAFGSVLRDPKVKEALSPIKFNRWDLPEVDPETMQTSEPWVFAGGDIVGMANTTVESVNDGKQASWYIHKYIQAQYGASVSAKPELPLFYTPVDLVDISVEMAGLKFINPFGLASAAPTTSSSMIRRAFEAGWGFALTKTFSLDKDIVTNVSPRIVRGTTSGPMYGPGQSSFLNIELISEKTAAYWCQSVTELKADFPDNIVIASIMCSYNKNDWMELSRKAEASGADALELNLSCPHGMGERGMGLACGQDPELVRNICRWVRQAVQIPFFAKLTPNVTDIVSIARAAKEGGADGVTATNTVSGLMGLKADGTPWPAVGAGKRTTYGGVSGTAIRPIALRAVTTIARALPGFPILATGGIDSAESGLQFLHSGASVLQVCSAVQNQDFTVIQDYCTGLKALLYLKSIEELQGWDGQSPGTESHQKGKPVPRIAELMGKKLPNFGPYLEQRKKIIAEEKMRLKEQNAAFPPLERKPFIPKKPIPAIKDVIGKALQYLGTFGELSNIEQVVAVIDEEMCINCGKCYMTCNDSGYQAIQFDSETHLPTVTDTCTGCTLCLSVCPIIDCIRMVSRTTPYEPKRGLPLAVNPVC
The series is described as follows: Skin DPD activity in pigs with topical eniluracil (Example 6). It is filed as in vivo. As to conditions: short term topical application at 0.005% or 0.01% w/w. The procedure:
This study was carried out to determine the plasma pharmacokinetics of eniluracil (EU) after topical administration and to evaluate the effect of topical eniluracil application on 5-FU pharmacokinetics, peripheral blood mononuclear cell (PBMC) dihydropyrimidine dehydrogenase (DPD) function, and levels of DPD activity in the skin in vivo. Eniluracil (0.005% and 0.01% w/w) formulated using Aquaphor® was applied topically (617 mg to a designated area) for 5 minutes every other day for 16 days starting on Day-2. 5-Fluorouracil was administered as a 6 mg/kg bolus injection on Day-3, Day 0 and Day 14. […]
A baseline 5-FU pharmacokinetic study was conducted on Day-3 by collecting serial blood samples after 5-FU administration. […] The duration of application was 5 minutes, which was determined based data obtained from a pilot study. […] These samples were then analyzed for DPD activity.
Ointment exposure time was 5 minutes every other day for 16 days. […] Eniluracil pharmacokinetics were analyzed from the serial blood samples drawn on first day of the 5-FU and eniluracil treatment (Day 0) and on Day 14. In addition, eniluracil concentrations were evaluated in all samples obtained for 5-FU pharmacokinetics, as shown above. 5-FU pharmacokinetics were evaluated from 11 serial blood samples drawn after the IV bolus administration of 5-FU on Day-3, Day 0 and Day 14. […]

The test system of series [3] is EpiDerm™ skin model (normal, human-derived epidermal keratinocytes (NHEK)). The series is described as follows: EpiDerm skin model MTT conversion assay (ET50, dermal irritation). It is filed as cell-based. Conditions: for ET50: exposure times 8, 20, 24 hours. The source says:
The EpiDerm™ skin model system (MatTek) was used to assess the potential dermal irritation of eniluracil alone or its formulation. This system consists of normal, human-derived epidermal keratinocytes (NHEK) which have been cultured to form a multilayered, highly differentiated model of the human epidermis. […] The EpiDerm™ system is mitotically and metabolically active. Markers of mature epidermis-specific differentiation such as pro-filaggrin, the K1/K10 cytokeratin pair, involucrin, and type I epidermal transglutaminase have been localized in the model. […] Eniluracil was prepared and administered to the test system at the three final concentrations of 1000 μM, 500 μM, and 100 μM, and tested at three exposure times of 8, 20, and 24 hours. The DMSO solvent control was tested at exposure times of 8 and 24 hours. The negative control was tested at exposure times of 4 and 24 hours, and the positive control was tested at exposure times of 4 and 8 hours. […] Hydrochloric acid in an amount equivalent to the sodium hydroxide was added to neutralize the ointment. The exposure time control was also exposed in duplicate for 4 and 24 hours. Table 2 below summarizes the ET50 results of the EpiDerm™ assay for the test articles and the positive control, using the negative control results to determine the relative viability.
In general terms: Tetrazolium dyes change colour on reduction, which living cells bring about.

Series [4] in a line: pH of test article in the EpiDerm studies. The series is classed as physicochemical.
Series [5] can be described thus: Plasma eniluracil after topical administration in pigs (Example 6). It is filed as in vivo. The method, then: (§1) This study was carried out to determine the plasma pharmacokinetics of eniluracil (EU) after topical administration and to evaluate the effect of topical eniluracil application on 5-FU pharmacokinetics, peripheral blood mononuclear cell (PBMC) dihydropyrimidine dehydrogenase (DPD) function, and levels of DPD activity in the skin in vivo. Eniluracil (0.005% and 0.01% w/w) formulated using Aquaphor® was applied topically (617 mg to a designated area) for 5 minutes every other day for 16 days starting on Day-2. 5-Fluorouracil was administered as a 6 mg/kg bolus injection on Day-3, Day 0 and Day 14. Samples were collected at predetermined time intervals to evaluate 5-fluorouracil pharmacokinetics, eniluracil pharmacokinetics, skin DPD activity and systemic DPD activity.
(§2) A baseline 5-FU pharmacokinetic study was conducted on Day-3 by collecting serial blood samples after 5-FU administration. […] The total ointment applied was […]. The area of application in the pig ([…]=0.0040 m^2) was selected based on feasibility and scale to the proposed human use using the following figures: the surface area of one palm and one sole combined in a human is 2% of the total body surface area, the average total body surface area in a pig is 0.40 m^2. Thus, in terms of total eniluracil in mg/m^2 applied to pigs was 0.154 for 0.01% and 0.077 for 0.005%. The duration of application was 5 minutes, which was determined based data obtained from a pilot study. In this study, higher doses of topical eniluracil (5 gms of 0.01%, 0.05% and 0.01% w/w) and placebo were applied on the skin and skin biopsies were collected after predefined time intervals. These samples were then analyzed for DPD activity.
Ointment exposure time was 5 minutes every other day for 16 days. Eniluracil treated animals also received 617 mg of placebo at a site different from the treatment site. Eniluracil pharmacokinetics were analyzed from the serial blood samples drawn on first day of the 5-FU and eniluracil treatment (Day 0) and on Day 14. In addition, eniluracil concentrations were evaluated in all samples obtained for 5-FU pharmacokinetics, as shown above. 5-FU pharmacokinetics were evaluated from 11 serial blood samples drawn after the IV bolus administration of 5-FU on Day-3, Day 0 and Day 14. […] The effect on the local DPD activity and the effect of topical eniluracil on systemic DPD activity were assessed by collecting skin biopsies from both the treatment site and the placebo site, and peripheral blood mononuclear cells (PBMCs) on day-2 and on day 12. DPD activity in PBMCs was also measured on Day 17 and Day 19, to investigate the time to recovery if there was any systemic inhibition of DPD.

Series [6] can be described thus: 5-FU pharmacokinetics in pigs with topical eniluracil (Example 6). It is filed as in vivo. As to conditions: pig, plasma, 6 mg/kg, 5-FU 6 mg/kg bolus, read-out: 5-FU Half-Life, Mean (SD). The procedure: as §1, §2
Ointment exposure time was 5 minutes every other day for 16 days. Eniluracil treated animals also received 617 mg of placebo at a site different from the treatment site. Eniluracil pharmacokinetics were analyzed from the serial blood samples drawn on first day of the 5-FU and eniluracil treatment (Day 0) and on Day 14. In addition, eniluracil concentrations were evaluated in all samples obtained for 5-FU pharmacokinetics, as shown above. 5-FU pharmacokinetics were evaluated from 11 serial blood samples drawn after the IV bolus administration of 5-FU on Day-3, Day 0 and Day 14. On 5-FU treatment days, eniluracil administration was conducted first (5 min) followed by 5-FU at the 6 minute time point. Blood samples were collected for plasma EU analyses prior to topical administration and at 2 min and 5 min (end of topical exposure). Blood samples were collected for both EU and 5-FU analyses immediately prior to 5-FU administration and at the following times from the IV bolus: 2, 5, 10, 15, 30, 45, 60, 90 120, and 180 min. Determinations of eniluracil and 5-fluorouracil plasma pharmacokinetics were made. The effect on the local DPD activity and the effect of topical eniluracil on systemic DPD activity were assessed by collecting skin biopsies from both the treatment site and the placebo site, and peripheral blood mononuclear cells (PBMCs) on day-2 and on day 12. DPD activity in PBMCs was also measured on Day 17 and Day 19, to investigate the time to recovery if there was any systemic inhibition of DPD.
In terms of statistical considerations, the study was designed with 4 pigs to a treatment group in order to have 80% power for observation of at least a 40% difference in 5-FU systemic exposure between measurements conducted on day-3 (no eniluracil) to day 14 (on eniluracil every other day since day-2) at each of the two dosing levels (4 animals per dose level). These evaluations were conducted using matched, paired T Tests and Wilcoxon tests. In addition, day 14 data were compared between the treatment vs. control groups using the Kiruskal-Wallis test. […]

For series [7], the system named is Thymidine phosphorylase (TP). The series is described as follows: Thymidine phosphorylase (TP) enzyme activity in skin sample supernatant. As to conditions: concentration of 100 uM; 200 μM capecitabine substrate.
Protocol: Skin samples were suspended in 600 μl of homogenization buffer containing 20 mM potassium phosphate (pH 8.0), 1.5 mM dithiothreitol (DTT), and 5 ul/ml protease inhibitor (Sigma). Samples were homogenized and centrifuged at 36,000 rpm for one hour at 4° C. The supernatants were collected and protein concentration was measured using the Bradford assay (Biorad). Thymidine phosporylase (TP) enzyme activity was determined in an assay mixture containing 20 mM potassium phosphate (pH 8.0), 1 mM DTT, 1 mM EDTA, 2 μM 6-^3H-Capecitabine (Moravek Biochemicals, Brea, Calif.), 200 μM unlabeled Capecitabine, varying concentrations of the inhibitor (100 μM, 10 μM, or 1 μM), and 80 μl of protein (6.0 mg/ml) in a final volume of 160 μl. Reactions were incubated at 37° C. for 30 minutes and then terminated by boiling for four minutes. To facilitate protein precipitation, the reactions were incubated at −80° C. for at least 20 minutes, thawed, and then centrifuged for 10 minutes at 14000 rpm at 4° C. The resulting supernatants were filtered through a 0.2 μm Acrodisc filter (VWR International, West Chester, Pa.) and samples were injected in duplicate (60 μl each) onto a HPLC (Hewlett-Packard 1050, Houston, Tex.) equipped with an automatic injector and on-line radioisotope flow detector (Radiomatic FLO-ONE Beta, Packard Instrument, Meriden, Conn.). […]

Like-named read-outs stand apart in the source and are kept apart here.

Take `CCCCCOC(=O)Nc1nc(=O)n([C@@H]2O[C@H](C)[C@@H](O)[C@H]2O)cc1F` [capecitabine, 5′-deoxy-5-fluoro-N-[(pentyloxy)carbonyl]-cytidine]: in series [1], the “reported incidence of HFS, all grades” value is listed as “approximately 60%” and the “reported incidence of HFS, high grade” value was roughly 17%.
For the compound `C#Cc1c[nH]c(=O)[nH]c1=O` [Eniluracil, eniluracil], the “effect on skin DPD activity” value in series [2] was “temporary and recoverable inhibition”. Also, in series [3] (1000, 500 and 100 μM, topical exposures of up to 24 hours), the “tolerability in EpiDerm skin model” value was “well-tolerated”. Besides, the ET50 in series [3] (eniluracil 100 uM), in series [3] (eniluracil 500 uM) and in series [3] (eniluracil 1000 uM) was greater than 24 h each time. Further, the pH in series [4] (eniluracil 100 uM), in series [4] (eniluracil 500 uM) and in series [4] (eniluracil 1000 uM) was 5 in each case. Besides, the “plasma EU concentration” value is no more than 11 ng/mL in series [5] (221 of the 224 samples, limit of quantitation, topical 0.005% or 0.01% w/w, 5 minutes every other day); 12.81 ng/mL in series [5] (pig 5303, EU dose 0.005%, day 14, 6 min); 11.52 ng/mL in series [5] (pig 5303, EU dose 0.005%, day 14, 11 min); 11.07 ng/mL in series [5] (pig 5303, EU dose 0.005%, day 14, 15 min).
Take `O=c1[nH]cc(F)c(=O)[nH]1` [5-FU, 5-Fluorouracil]: the half-life – broadly, how long it takes for the measured level to halve – in series [6] (iv, Both Doses of eniluracil ointment, Day 0) came to 10.1 min; in series [6] (iv, Both Doses of eniluracil ointment, Day 14) it was 9.77 min; in series [6] (iv, Controls (no ointment), Day 0), 7.56 min; in series [6] (iv, Controls (no ointment), Day 14) it was 9.74 min; in series [6] (iv, Controls (no ointment), Day −3), 5.51 min; in series [6] (iv, eniluracil ointment Dose 0.005%, Day 0) it was 6.98 min. In addition, the half-life was determined as 6.7 min in series [6] (iv, eniluracil ointment Dose 0.005%, Day 14); 13.2 min in series [6] (iv, eniluracil ointment Dose 0.01%, Day 0); 12.8 min in series [6] (iv, eniluracil ointment Dose 0.01%, Day 14); 5.11 min in series [6] (topical or ocular, Both Doses of eniluracil ointment, Day −3 (no topical eniluracil)); 5.44 min in series [6] (topical or ocular, eniluracil ointment Dose 0.005% group, Day −3 (no topical eniluracil)); 4.78 min in series [6] (topical or ocular, eniluracil ointment Dose 0.01% group, Day −3 (no topical eniluracil)).
As for `Cc1cn([C@H]2C[C@H](O)[C@@H](CO)O2)c(=O)[nH]c1=O` [thymidine], the “inhibition of TP activity” value in series [7] is recorded as “about 50%”.
On to `O=c1ccn([C@@H]2O[C@H](CO)[C@@H](O)[C@H]2O)c(=O)[nH]1` [uridine], for which the “inhibition of TP activity” value in series [7] was “about 50%”.

These data come from patent US20090196833A1, “COMPOSITIONS COMPRISING TOPICAL DPD INHIBITORS AND METHODS OF USING SAME IN THE TREATMENT OF HAND-FOOT SYNDROME” (ADHEREX TECHNOLOGIES INC., priority 2008, published 2009).
